For one test, the target named is T1, HDAC 6 (Homo sapiens, UniProt Q9UBN7).
T1 sequence (Q9UBN7 1-1215): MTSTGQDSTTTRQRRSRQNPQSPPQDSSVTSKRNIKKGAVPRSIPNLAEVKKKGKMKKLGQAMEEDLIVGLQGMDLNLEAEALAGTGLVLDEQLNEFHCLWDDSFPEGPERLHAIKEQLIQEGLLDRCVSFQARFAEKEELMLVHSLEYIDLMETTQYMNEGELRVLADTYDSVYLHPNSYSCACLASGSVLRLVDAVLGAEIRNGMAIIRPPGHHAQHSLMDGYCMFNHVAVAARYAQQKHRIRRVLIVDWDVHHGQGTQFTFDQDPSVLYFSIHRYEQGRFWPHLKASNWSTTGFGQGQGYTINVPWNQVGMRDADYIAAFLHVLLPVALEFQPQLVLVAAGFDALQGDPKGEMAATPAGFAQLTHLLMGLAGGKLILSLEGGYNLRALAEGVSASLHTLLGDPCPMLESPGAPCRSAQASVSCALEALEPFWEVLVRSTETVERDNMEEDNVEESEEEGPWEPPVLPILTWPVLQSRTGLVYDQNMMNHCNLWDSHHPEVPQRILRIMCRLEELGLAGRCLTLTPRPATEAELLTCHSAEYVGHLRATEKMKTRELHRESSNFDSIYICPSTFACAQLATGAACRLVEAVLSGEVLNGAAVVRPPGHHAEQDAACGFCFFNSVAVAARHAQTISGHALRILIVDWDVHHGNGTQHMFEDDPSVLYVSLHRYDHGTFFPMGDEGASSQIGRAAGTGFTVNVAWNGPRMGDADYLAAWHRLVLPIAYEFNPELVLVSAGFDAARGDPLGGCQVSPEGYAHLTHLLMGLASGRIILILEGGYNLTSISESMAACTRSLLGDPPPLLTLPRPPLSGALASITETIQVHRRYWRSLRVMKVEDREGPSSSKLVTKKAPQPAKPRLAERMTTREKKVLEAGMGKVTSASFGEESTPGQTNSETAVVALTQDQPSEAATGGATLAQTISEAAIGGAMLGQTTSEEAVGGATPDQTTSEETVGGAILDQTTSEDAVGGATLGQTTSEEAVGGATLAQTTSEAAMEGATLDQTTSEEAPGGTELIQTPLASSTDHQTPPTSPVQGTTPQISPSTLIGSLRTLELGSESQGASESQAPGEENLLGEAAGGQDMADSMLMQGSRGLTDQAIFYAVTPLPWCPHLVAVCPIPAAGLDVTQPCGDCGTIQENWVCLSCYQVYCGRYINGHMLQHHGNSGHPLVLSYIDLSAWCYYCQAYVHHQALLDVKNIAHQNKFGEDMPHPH
In words: Recombinant HDAC 6 inhibition. The test is classed as biochemical.

The test system of a further test is topoisomerase II. In words: KDNA decatenation assay. The test is classed as biochemical. To be noted: 50 μM drug, 10 min at 37°C, gel.
Test [1] has as its system acetylated histones H4 and H3. In words: Western blot of histone H4 and H3 acetylation in DU-145 cells. The test is classed as cell-based, human. The note with it: DU-145, 24 h; SAHA 2.5, 5 μM; DAU 0.1, 0.5 μM; 7 0.5, 1 μM; 12b 2.5, 5 μM. (In general: Immunoblotting shows a protein as a band on a membrane.)
Test [2] concerns Topo II-DNA cleavage complexes. In words: Cellular Topo II inhibition. The test is classed as cell-based, human. To be noted: 90 nM DAU, 130 nM 7, […] 12b; for stabilized Topo II-DNA cleavage complexes, 30 min treatment: DU-145, 30 min; for stabilized Topo II-DNA cleavage complexes, 72 hour treatment: DU-145, 72 h.
Another test has as its system acetyl tubulin. In words: Western blot of tubulin acetylation in DU-145 cells. To be noted: DU-145, 4 h; DAU 90, 500 nM; 7 130, 500 nM; 12b 1.31, 10 μM.
The target in the next test is HDAC 1 (Homo sapiens, UniProt Q13547). In words: Recombinant HDAC 1 inhibition. The note with it: 12c vs 12a.
HDAC 1, sequence (Q13547 whole entry): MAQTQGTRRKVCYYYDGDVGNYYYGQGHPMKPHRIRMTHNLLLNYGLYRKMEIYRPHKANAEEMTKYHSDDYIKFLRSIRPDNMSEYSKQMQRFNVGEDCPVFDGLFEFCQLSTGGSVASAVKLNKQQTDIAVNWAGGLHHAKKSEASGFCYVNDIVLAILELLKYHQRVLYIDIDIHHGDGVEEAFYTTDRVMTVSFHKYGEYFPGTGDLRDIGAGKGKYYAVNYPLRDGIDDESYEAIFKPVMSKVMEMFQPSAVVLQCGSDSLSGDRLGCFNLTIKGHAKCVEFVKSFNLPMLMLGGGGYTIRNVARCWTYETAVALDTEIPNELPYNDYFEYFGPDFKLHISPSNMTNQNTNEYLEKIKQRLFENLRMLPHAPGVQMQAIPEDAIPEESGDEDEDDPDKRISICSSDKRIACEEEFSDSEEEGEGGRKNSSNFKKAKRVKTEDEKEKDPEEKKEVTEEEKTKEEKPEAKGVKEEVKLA
In another test the target is T2, HDAC 8 (Homo sapiens, UniProt Q9BY41).
T2 sequence (Q9BY41 1-377): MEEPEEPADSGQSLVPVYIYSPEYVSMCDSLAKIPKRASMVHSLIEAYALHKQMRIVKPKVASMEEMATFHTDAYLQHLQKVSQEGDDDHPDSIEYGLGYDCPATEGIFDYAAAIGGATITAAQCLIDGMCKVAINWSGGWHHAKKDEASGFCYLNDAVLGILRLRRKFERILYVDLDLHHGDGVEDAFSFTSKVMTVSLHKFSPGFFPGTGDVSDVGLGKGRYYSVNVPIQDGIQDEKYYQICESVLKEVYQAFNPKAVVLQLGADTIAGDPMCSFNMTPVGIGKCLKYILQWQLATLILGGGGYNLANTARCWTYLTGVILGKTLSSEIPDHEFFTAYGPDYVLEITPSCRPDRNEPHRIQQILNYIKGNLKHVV
In words: Recombinant HDAC 8 inhibition. The note with it: HDAC 8 vs HDAC 1.

In test [3] the test system is HeLa cell nuclear extract HDACs (HDAC 1/2). In words: In vitro HDAC inhibition, HeLa nuclear extract. The test is classed as biochemical. The note with it: relative to 12a.

Here are results for 6 compounds from paper PMC3306125 (Journal of Medicinal Chemistry, 2012).

As usually defined, the IC50 is the concentration needed to halve the response being measured.

Turning to `COc1cccc2c1C(=O)c1c(O)c3c(c(O)c1C2=O)C[C@@](O)(C(C)=O)C[C@@H]3O[C@H]1C[C@H](NCc2ccc(-c3cn(CCCCC(=O)NO)nn3)cc2)[C@H](O)[C@H](C)O1` [Compound 12a, Daunorubicin-N-benzyl-4-triazolylpentahydroxamic Acid], on HDAC 6, the IC50 was found to be 600 nM. Further, the “Topo II inhibition (KDNA decatenation)” value in the test with topoisomerase II was “lower Topo II inhibition activity”.

`COc1cccc2c1C(=O)c1c(O)c3c(c(O)c1C2=O)C[C@@](O)(C(C)=O)C[C@@H]3O[C@H]1C[C@H](NCc2ccc(-c3cn(CCCCCC(=O)NO)nn3)cc2)[C@H](O)[C@H](C)O1` [Compound 12b, Daunorubicin-N-benzyl-4-triazolylhexahydroxamic Acid]: the “Topo II inhibition (KDNA decatenation)” value in the test on topoisomerase II is “comparable levels to that of DAU”. Besides, the “histone H4 acetylation (immunoblot)” value in test [1] is reported as “strong H4 acetylation”. In addition, in test [2], the “stabilized Topo II-DNA cleavage complexes, 30 min treatment” value is reported as “significantly higher amount” and the “stabilized Topo II-DNA cleavage complexes, 72 hour treatment” value is “drastic drop”. Moreover, the “tubulin acetylation (immunoblot)” value with acetyl tubulin was “robust acetylation”.

`COc1cccc2c1C(=O)c1c(O)c3c(c(O)c1C2=O)C[C@@](O)(C(C)=O)C[C@@H]3O[C@H]1C[C@H](NCc2ccc(-c3cn(CCCCCCC(=O)NO)nn3)cc2)[C@H](O)[C@H](C)O1` [Compound 12c, Daunorubicin-N-benzyl-4-triazolylheptahydroxamic Acid]: the “Topo II inhibition (KDNA decatenation)” value in the test on topoisomerase II was “near total inhibition”. At HDAC 1, the “fold activity difference between 12a and 12c, HDAC inhibitory activity” value is given as ~ 600 fold.

Turning to `COc1cccc2c1C(=O)c1c(O)c3c(c(O)c1C2=O)C[C@@](O)(C(C)=O)C[C@@H]3O[C@H]1C[C@H](NCc2ccc(NC(=O)CCCCCCC(=O)NO)cc2)[C@H](O)[C@H](C)O1` [Compound 7, Daunorubicin-N-benzyl-4-amino-8-oxooctahydroxamic Acid], the “Topo II inhibition (KDNA decatenation)” value with topoisomerase II is reported as “comparable levels to that of DAU”. For the same compound, in test [2], the “stabilized Topo II-DNA cleavage complexes, 30 min treatment” value was “indistinguishable from that of the control cells” and the “stabilized Topo II-DNA cleavage complexes, 72 hour treatment” value is reported as “measured increase in Topo II inhibition”. Besides, the “tubulin acetylation (immunoblot)” value in the test on acetyl tubulin is reported as “moderate levels of acetylation”. At HDAC 8, the “anti-HDAC 8 activity, fold less than anti-HDAC 1 activity” value is “about 4 fold”.

Turning to `COc1cccc2c1C(=O)c1c(O)c3c(c(O)c1C2=O)C[C@@](O)(C(C)=O)C[C@@H]3O[C@H]1C[C@H](NCc2ccc(-c3cn(CCCCCCCC(=O)NO)nn3)cc2)[C@H](O)[C@H](C)O1` [Compound 12d, Daunorubicin-N-benzyl-4-triazolyloctahydroxamic Acid], the “fold more potent than 12a, HeLa nuclear extract HDACs” value in test [3] is reported as “about 20 fold”. Moreover, the “Topo II inhibition (KDNA decatenation)” value in the test on topoisomerase II is given as “lower Topo II inhibition activity”.

Take `COc1cccc2c1C(=O)c1c(O)c3c(c(O)c1C2=O)C[C@@](O)(C(C)=O)C[C@@H]3O[C@H]1C[C@H](N)[C@H](O)[C@H](C)O1` [DAU, daunomycin, reference compound]: the “Topo II inhibition (KDNA decatenation)” value in the test on topoisomerase II was “severe impairment of DNA decatenation”. In test [2], the “stabilized Topo II-DNA cleavage complexes, 30 min treatment” value is reported as “high levels” and the “stabilized Topo II-DNA cleavage complexes, 72 hour treatment” value is on record as “significant inhibition of Topo II activity”. Moreover, the “tubulin acetylation (immunoblot)” value in the test with acetyl tubulin is listed as “lowest levels of acetylation”.
